Test results: patent US4785090A, “Cephalosporin derivatives” (Meiji Seika Kaisha, Ltd., priority 1984, dated 1988)
Converted amounts (≈) assume the structure as drawn.

Tests used:
Format in all cases: cell-based
[1] = test system: Enterobacter cloacae G0006; assay: Minimum Growth Inhibitory Concentration (MIC), Enterobacter cloacae G0006; conditions: Table 1, bacterium 6: Enterobacter cloacae G0006
Text: (§1) Minimum Growth Inhibitory Concentration (MIC) mcg/ml
6. Enterobacter cloacae G0006

[2] = test system: Pseudomonas aeruginosa MB 3833; assay: Minimum Growth Inhibitory Concentration (MIC), Pseudomonas aeruginosa MB 3833; conditions: MB3833; Table 1, bacterium 8: Pseudomonas aeruginosa MB 3833
Text: as §1
8. Pseudomonas aeruginosa MB 3833

Bacillus subtilis = assay: Minimum Growth Inhibitory Concentration (MIC), Bacillus subtilis; conditions: Table 1, bacterium 2: Bacillus subtilis
Text: as §1

Escherichia coli RGN 823 = assay: Minimum Growth Inhibitory Concentration (MIC), Escherichia coli RGN 823; conditions: RGN823; Table 1, bacterium 3: Escherichia coli RGN 823
Text: as §1
3. Escherichia coli RGN 823

[3] = test system: Klebsiella pneumoniae GN 69; assay: Minimum Growth Inhibitory Concentration (MIC), Klebsiella pneumoniae GN 69; conditions: GN69; Table 1, bacterium 4: Klebsiella pneumoniae GN 69
Text: as §1
4. Klebsiella pneumoniae GN 69

[4] = test system: Staphylococcus aureus 209PJC1; assay: Minimum Growth Inhibitory Concentration (MIC), Staphylococcus aureus 209PJC1; conditions: Table 1, bacterium 1: Staphylococcus aureus 209PJC1; read-out: Minimum Growth Inhibitory Concentration (MIC)
Text: as §1
1. Staphylococcus aureus 209PJC1
as §1
2. Staphylococcus aureus 209 PJC1

Proteus vulgaris OX19 = assay: Minimum Growth Inhibitory Concentration (MIC), Proteus vulgaris OX19; conditions: Table 1, bacterium 5: Proteus vulgaris OX19
Text: as §1
5. Proteus vulgaris OX19

Serratia marcescens N 01 = assay: Minimum Growth Inhibitory Concentration (MIC), Serratia marcescens N 01; conditions: N01; Table 1, bacterium 7: Serratia marcescens N 01
Text: as §1
7. Serratia marcescens N 01

Proteus vulgaris GN 76 = assay: Minimum Growth Inhibitory Concentration (MIC), Proteus vulgaris GN 76; conditions: GN76; Table 1, bacterium 10: Proteus vulgaris GN 76; read-out: Minimum Growth Inhibitory Concentration (MIC)
Text: as §1
10. Proteus vulgaris GN 76
as §1
8. Proteus vulgaris GN 76

[5] = test system: Streptococcus faecalis ATCC 8043; assay: Minimum Growth Inhibitory Concentration (MIC), Streptococcus faecalis ATCC 8043; conditions: Enterococcus faecalis, ATCC8043; Table 1, bacterium 9: Streptococcus faecalis ATCC 8043
Text: as §1
9. Streptococcus faecalis ATCC 8043

[6] = test system: Enterobacter cloacae G0005; assay: Minimum Growth Inhibitory Concentration (MIC), Enterobacter cloacae G0005; conditions: Table 1, bacterium 11: Enterobacter cloacae G0005
Text: as §1
11. Enterobacter cloacae G0005

SMILES	MIC [1] [µg/mL]	MIC [2] [µg/mL]	MIC (Bacillus subtilis) [µg/mL]	MIC (Escherichia coli RGN 823) [µg/mL]	MIC [3] [µg/mL]	MIC [4] [µg/mL]	MIC (Proteus vulgaris OX19) [µg/mL]	MIC (Serratia marcescens N 01) [µg/mL]	MIC (Proteus vulgaris GN 76) [µg/mL]	MIC [5] [µg/mL]	MIC [6] [µg/mL]
CO/N=C(\C(=O)N[C@@H]1C(=O)N2C(C(=O)[O-])=C(CSc3ccc4c([n+]3C)CCC4)CS[C@H]12)c1csc(N)n1 [Example 1, (6R,7R)-7-[(Z)-2-(2-Aminothiazol-4-yl)-2-methoxyiminoacetamido]-3-[(5,6-cyclopenteno-1-methylpyridinium-2-yl)thiomethyl]-ceph-3-em-4-carboxylate]	1.56 (≈ 2.78 µM)	12.5 (≈ 22.3 µM)	1.56 (≈ 2.78 µM)	≤ 0.025	≤ 0.025	0.2 (≈ 0.357 µM)	0.39 (≈ 0.696 µM)	0.05 (≈ 0.0892 µM)			
CO/N=C(\C(=O)N[C@@H]1C(=O)N2C(C(=O)[O-])=C(CSc3cc[n+](C)c4c3CCC4)CS[C@H]12)c1csc(N)n1 [Example 2, (6R,7R)-7-[(Z)-2-(2-Aminothiazol-4-yl)-2-methoxyiminoacetamido]-3-[(2,3-cyclopenteno-1-methylpyridinium-4-yl)thiomethyl]-ceph-3-em-4-carboxylate]	0.78 (≈ 1.39 µM)	6.25 (≈ 11.1 µM)	1.56 (≈ 2.78 µM)	≤ 0.025	≤ 0.025	0.05 (≈ 0.0892 µM)	0.1 (≈ 0.178 µM)	0.05 (≈ 0.0892 µM)			
CO/N=C(\C(=O)N[C@@H]1C(=O)N2C(C(=O)[O-])=C(CSc3cc(C)[n+](C)c4c3CCC4)CS[C@H]12)c1csc(N)n1 [Example 4, (6R,7R)-7-[(Z)-2-(2-Aminothiazol-4-yl)-2-methoxyiminoacetamido]-3-[(6-methyl-2,3-cyclopenteno-1-methylpyridinium-4-yl)thiomethyl]-ceph-3-em-4-carboxylate]	0.78 (≈ 1.36 µM)	6.25 (≈ 10.9 µM)	0.2 (≈ 0.348 µM)	0.1 (≈ 0.174 µM)	0.1 (≈ 0.174 µM)	0.1 (≈ 0.174 µM)	0.2 (≈ 0.348 µM)	0.1 (≈ 0.174 µM)			
Cc1cc(SCC2=C(C(=O)[O-])N3C(=O)[C@@H](NC(=O)/C(=N\OC[C@@H](N)C(=O)O)c4csc(N)n4)[C@H]3SC2)c2c([n+]1C)CCCC2 [Example 12, (6R,7R)-7-[(Z)-2-(2-Aminothiazol-4-yl)-2-(2D-2-amino-2-carboxyethoxyimino)acetamido]-3-[(6-methyl-2,3-cyclohexeno-1-methylpyridinium-4-yl)thiomethyl]-ceph-3-em-4-carboxylate]	6.25 (≈ 9.44 µM)	50 (≈ 75.6 µM)	12.5 (≈ 18.9 µM)	1.56 (≈ 2.36 µM)	0.78 (≈ 1.18 µM)	3.13 (≈ 4.73 µM)	1.56 (≈ 2.36 µM)	1.56 (≈ 2.36 µM)			
C[n+]1c(SCC2=C(C(=O)[O-])N3C(=O)[C@@H](NC(=O)/C(=N\OC(C)(C)C(=O)O)c4csc(N)n4)[C@H]3SC2)ccc2c1CCCC2 [Example 18, (6R,7R)-7-[(Z)-2-(2-Aminothiazol-4-yl)-2-(1-methyl-1-carboxyethoxyimino)acetamido]-3-[(5,6-cyclohexeno-1-methylpyridinium-2-yl)thiomethyl]-ceph-3-em-4-carboxylate]	6.25 (≈ 9.66 µM)	6.25 (≈ 9.66 µM)	12.5 (≈ 19.3 µM)	0.2 (≈ 0.309 µM)	0.39 (≈ 0.603 µM)	1.56 (≈ 2.41 µM)	0.1 (≈ 0.155 µM)	0.05 (≈ 0.0773 µM)			
CO/N=C(\C(=O)N[C@@H]1C(=O)N2C(C(=O)[O-])=C(CSc3cc[n+](CC(N)=O)c4c3CCC4)CS[C@H]12)c1csc(N)n1 [Example 35, (6R,7R)-7-[(Z)-2-(2-Aminothiazol-4-yl)-2-methoxyiminoacetamido]-3-[(2,3-cyclopenteno-1-carbamoylmethylpyridinium-4-yl)thiomethyl]-ceph-3-em-4-carboxylate]		12.5 (≈ 20.7 µM)	0.2 (≈ 0.331 µM)	0.1 (≈ 0.166 µM)	0.05 (≈ 0.0828 µM)	0.1 (≈ 0.166 µM)		0.1 (≈ 0.166 µM)	0.39 (≈ 0.646 µM)	0.2 (≈ 0.331 µM)	0.2 (≈ 0.331 µM)
